Test results taken from patent US20050209157A1, “Short bioactive peptides and methods for their use” (priority 2001, published 2005).
No end group written: not given here.

Tests used:
[1] = test system: yeast (Saccharomyces cerevisiae); assay: Antimicrobial assay I, yeast assay in RPMI 1640; type: cell-based; conditions: RPMI 1640 media
BMKC = assay: Anti-cancer assay, MTT, LD50; type: cell-based; conditions: BMKC cloned melanoma line, 24 hours with peptide
From the text: (§1) Numbers are LD50 values (μg/mL).

PC3 = assay: Anti-cancer assay, MTT, LD50; type: cell-based; conditions: 24 hours with peptide, prostate adenocarcinoma
From the text: as §1

H1299 = assay: Anti-cancer assay, MTT, LD50; type: cell-based; conditions: 24 hours with peptide, lung large cell carcinoma
From the text: as §1

SW480 = assay: Anti-cancer assay, MTT, LD50; type: cell-based; conditions: SW480 colon adenocarcinoma line, 24 hours with peptide
From the text: as §1

MCF7 = assay: Anti-cancer assay, MTT, LD50; type: cell-based; conditions: MCF7 breast adenocarcinoma line, MTT, 24 hours with peptide
From the text: as §1

HeLaS3 = assay: Anti-cancer assay, MTT, LD50; type: cell-based; conditions: 24 hours with peptide, cervical carcinoma
From the text: as §1

WI38 = conditions: MTT, 24 hours with peptide; for WI38 LD50: normal fibroblast line; for LD50 WI38: WI38 normal lung fibroblast line
[2] = test system: Staphylococcus aureus ATCC 6538; assay: Antimicrobial assay I, MIC by OD measurement; type: cell-based; conditions: 37° C. for 24 hours, absorbance 620 nm
[3] = test system: Pseudomonas aeruginosa ATCC 9027; assay: Antimicrobial assay I, MIC by OD measurement; type: cell-based; conditions: 37° C. for 24 hours, absorbance 620 nm
[4] = test system: human red blood cells (RBC); assay: in vitro; type: cell-based; conditions: hemolytic assay, concentration at 50% hemolysis, 1 hour at 37° C.

Substance	yeast (MIC or MFC) [1]	LD50 BMKC (BMKC)	PC3 LD50 (PC3)	H1299 LD50 (H1299)	LD50 SW480 (SW480)	LD50 MCF7 (MCF7)	HeLaS3 LD50 (HeLaS3)	WI38 LD50 (WI38)	LD50 WI38 (WI38)	staph6538 (MIC) [2]	paerug9027 (MIC) [3]	LD50 [4]
FAKLF-NH2 [P129, FAKLF-NH2]	100 µg/mL	> (> indicates greater than 1000)	> (> indicates greater than 1000)	790 µg/mL	550 µg/mL	> (> indicates greater than 1000)	550 µg/mL	> (> indicates greater than 1000)	> (> indicates greater than 1000)	100 µg/mL	25 µg/mL	> (> indicates greater than 1000)
FAKLLAKAFKKAL-NH2 [P114, FAKLLAKAFKKAL-NH2]	100 µg/mL	> (> indicates greater than 1000)	> (> indicates greater than 1000)	> (> indicates greater than 1000)	> (> indicates greater than 1000)	730 µg/mL	> (> indicates greater than 1000)	> (> indicates greater than 1000)	> (> indicates greater than 1000)	50 µg/mL	15 µg/mL	> (> indicates greater than 1000)
FAKKLAKKAKLAKKL-NH2 [P77]	200 µg/mL	125 µg/mL	> (> indicates greater than 1000)	> (> indicates greater than 1000)	> (> indicates greater than 1000)	> (> indicates greater than 1000)	> (> indicates greater than 1000)	> (> indicates greater than 1000)	> (> indicates greater than 1000)	200 µg/mL	100 µg/mL	> (> indicates greater than 1000)
FAKKLKKLAKKL-NH2 [P79]	100 µg/mL	830 µg/mL	> (> indicates greater than 1000)	> (> indicates greater than 1000)	> (> indicates greater than 1000)	540 µg/mL	> (> indicates greater than 1000)	> (> indicates greater than 1000)	> (> indicates greater than 1000)	100 µg/mL	200 µg/mL	> (> indicates greater than 1000)
FALKALKK-NH2 [P145]	200 µg/mL	> (> indicates greater than 1000)	> (> indicates greater than 1000)	> (> indicates greater than 1000)	> (> indicates greater than 1000)	> (> indicates greater than 1000)	240 µg/mL	> (> indicates greater than 1000)	> (> indicates greater than 1000)	200 µg/mL	100 µg/mL	> (> indicates greater than 1000)
FAKLLAKLAKAKG-NH2 [P96]	> (> indicates greater than 200 μg/mL)	> (> indicates greater than 1000)	> (> indicates greater than 1000)	> (> indicates greater than 1000)	> (> indicates greater than 1000)	> (> indicates greater than 1000)	> (> indicates greater than 1000)	> (> indicates greater than 1000)	> (> indicates greater than 1000)	> (> indicates greater than 200 μg/mL)	> (> indicates greater than 200 μg/mL)	> (> indicates greater than 1000)
FAKAIAKIAFGKGIGKVGKKLL-NH2 [P134]	200 µg/mL	> (> indicates greater than 1000)	> (> indicates greater than 1000)	> (> indicates greater than 1000)	740 µg/mL	> (> indicates greater than 1000)	> (> indicates greater than 1000)	> (> indicates greater than 1000)	> (> indicates greater than 1000)	100 µg/mL	> (> indicates greater than 200 μg/mL)	> (> indicates greater than 1000)
FAKIIAKIAKKI-NH2 [P143]	200 µg/mL	> (> indicates greater than 1000)	> (> indicates greater than 1000)	> (> indicates greater than 1000)	> (> indicates greater than 1000)	> (> indicates greater than 1000)	> (> indicates greater than 1000)	> (> indicates greater than 1000)	> (> indicates greater than 1000)	100 µg/mL	50 µg/mL	> (> indicates greater than 1000)
FAFAKIIAKIAKKII-NH2 [P140]	> (> indicates greater than 200 μg/mL)	> (> indicates greater than 1000)	> (> indicates greater than 1000)	> (> indicates greater than 1000)	> (> indicates greater than 1000)	> (> indicates greater than 1000)	285 µg/mL	> (> indicates greater than 1000)	> (> indicates greater than 1000)	> (> indicates greater than 200 μg/mL)	> (> indicates greater than 200 μg/mL)	> (> indicates greater than 1000)
FAKKLAKLAKKL-NH2 [P106]	100 µg/mL	690 µg/mL	> (> indicates greater than 1000)	920 µg/mL	570 µg/mL	620 µg/mL	700 µg/mL	> (> indicates greater than 1000)	> (> indicates greater than 1000)	100 µg/mL	25 µg/mL	> (> indicates greater than 1000)
FAKGVGKVGKKAL-NH2 [P137, FAKGVGKVGKKAL-NH2]	> (> indicates greater than 200 μg/mL)	> (> indicates greater than 1000)	> (> indicates greater than 1000)	> (> indicates greater than 1000)	> (> indicates greater than 1000)	> (> indicates greater than 1000)	> (> indicates greater than 1000)	> (> indicates greater than 1000)	> (> indicates greater than 1000)	> (> indicates greater than 200 μg/mL)	> (> indicates greater than 200 μg/mL)	> (> indicates greater than 1000)
